Literature values in patent US20090099557A1, “Methods and compositions for optimizing the outcomes of refractive laser surgery of the cornea” (priority 2006, published 2009).

Assays:
epithelial cells [1] = details: 18% ethanol for 25 seconds; single cell layers of epithelial cells, in vitro
epithelial cells [2] = details: ethanol-assisted epithelial separation; Invest Opthalmol Vis Sci 43: 2593-2602 (2002); J Cataract Refract Surg 28: 1841-46 (2002)

CCO [ethanol]
toxic effect of the alcohol on epithelial cells (epithelial cells [1]): toxic effect | toxicity to epithelial cells (epithelial cells [2]): toxic to epithelial cells in both a dose- and time-dependent manner
